Data reported in article PMC7864192 (Cancers, 2021).
Read-outs that look alike come from different tables or passages of the source.

Legend:
[1] = test system: GCPA007 T2.IV patient-derived AGCT cell line; assay: Cell viability drug screen (Cell Titer Glo 2.0, 72 h), mono- and combination therapy, GCPA007T2.IV; settings: for IC50: read-out: IC50 in monotherapy
[2] = test system: GCPA113 T1.II patient-derived AGCT cell line; assay: Cell viability drug screen (Cell Titer Glo 2.0, 72 h), mono- and combination therapy, GCPA113T1.II; settings: for IC50: read-out: IC50 in monotherapy
Description: (§1) Cell lines were seeded at a density of 500 cells/well in 40 uL in 384-well plates (Corning, NY, USA) with the Multidrop™ cell dispenser (Thermo Fischer Scientific, Waltham, MA, USA) and sealed with Breathe-Easy® membrane (Sigma-Aldrich, St. Louis, MO, USA) to prevent evaporation. […] For each cell line, three biological repeats and two technical repeats each were performed in order to ensure the validity of the drug screens. […] Subsequently, 11 drugs and 12 drug combinations were dispensed and all wells (excluding blanks and non-DMSO control wells) were normalized to 1% DMSO using the HP Tecan D300e Digital Dispenser (Hewlett-Packard, Palo Alto, CA, USA). […] Next, the plates were covered with the Breathe-Easy membrane and incubated. After 72 h, the Multidrop dispensed 15 uL per well of Cell Titer Glo 2.0 (Thermo Fischer Scientific, Waltham, MA, USA) and plates were incubated in the dark for 10 min. After incubation, luminescence excitation was assessed in the Spectramax reader (Molecular Devices, San Jose, CA, USA) (top read, luminescence excitation at 500 nm) and raw data were processed in Microsoft Excel to subtract background luminescence. The Z-factor, a mathematical method used to quantify the quality of a drug screen based on the calculation of the separation band between the values of the positive and negative controls, was utilized to assess the quality of drug screens [54]. Screens with a Z-factor value of >0.5 were used for further analysis.
(§2) Overall cell survival (in %) was plotted against the drug concentration range of each drug (in log10[μM]) using GraphPad Prism 8.3.1. Values that exceeded 100% survival (within +20% biological deviation) were normalized to 100% survival. Similarly, values below 0% cell survival (within −20% biological deviation) were normalized to 0% survival. Values exceeding this deviation were excluded. Dose–response curves were obtained using the model “log(inhibitor) vs. variable slope (normalized response)” to fit the dose–response curves and R^2 values were used to indicate how well the model fit the data (Supplementary Materials Figures S4 and S5). […] The IC50 values were calculated based on the Chou–Talalay method using Compusyn software [55]. For anti-hormonal treatment, mostly provided as maintenance therapy, we used IC10 values in addition to the IC50.
(§3) In addition to the 11 monotherapies, 12 drug combinations were tested (Table 3) simultaneously with the individual drug treatments in the same 384-well plate. […] Synergy was evaluated using the mass action law, a systematic analysis assessing dose–response dynamics in a cost-effective manner [56, 57]. The combination index (CI) was used to indicate antagonistic (CI > 1) additive (CI = 1) and synergistic (CI < 1) effects [55].

[3] = test system: GCPA096 T1.XV patient-derived AGCT cell line; assay: Cell viability drug screen (Cell Titer Glo 2.0, 72 h), mono- and combination therapy, GCPA096T1.XV; settings: for IC50: 72 h, read-out: IC50 in monotherapy
[4] = test system: GCPA096 T1.XVI patient-derived AGCT cell line; assay: Cell viability drug screen (Cell Titer Glo 2.0, 72 h), mono- and combination therapy, GCPA096T1.XVI; settings: for IC50: read-out: IC50 in monotherapy
Description: (§4) Cell lines were seeded at a density of 500 cells/well in 40 uL in 384-well plates (Corning, NY, USA) with the Multidrop™ cell dispenser (Thermo Fischer Scientific, Waltham, MA, USA) and sealed with Breathe-Easy® membrane (Sigma-Aldrich, St. Louis, MO, USA) to prevent evaporation. The SVOG-3e line was seeded at 1000 cells/well due to contact-dependent growth requirements. For each cell line, three biological repeats and two technical repeats each were performed in order to ensure the validity of the drug screens. […] Subsequently, 11 drugs and 12 drug combinations were dispensed and all wells (excluding blanks and non-DMSO control wells) were normalized to 1% DMSO using the HP Tecan D300e Digital Dispenser (Hewlett-Packard, Palo Alto, CA, USA). All drugs were applied in linear concentration ranges (Table 2), including 16 data points to enable combination drug testing at constant ratios (Table 3). Next, the plates were covered with the Breathe-Easy membrane and incubated. After 72 h, the Multidrop dispensed 15 uL per well of Cell Titer Glo 2.0 (Thermo Fischer Scientific, Waltham, MA, USA) and plates were incubated in the dark for 10 min. After incubation, luminescence excitation was assessed in the Spectramax reader (Molecular Devices, San Jose, CA, USA) (top read, luminescence excitation at 500 nm) and raw data were processed in Microsoft Excel to subtract background luminescence. […] Screens with a Z-factor value of >0.5 were used for further analysis.
(§5) Overall cell survival (in %) was plotted against the drug concentration range of each drug (in log10[μM]) using GraphPad Prism 8.3.1. Values that exceeded 100% survival (within +20% biological deviation) were normalized to 100% survival. Similarly, values below 0% cell survival (within −20% biological deviation) were normalized to 0% survival. Values exceeding this deviation were excluded. Dose–response curves were obtained using the model “log(inhibitor) vs. variable slope (normalized response)” to fit the dose–response curves and R^2 values were used to indicate how well the model fit the data (Supplementary Materials Figures S4 and S5). […] The maximum plasma concentration (Cmax) and the plasma concentration at steady state (Css) were used as toxicity thresholds. The Cmax was utilized for drugs in which short, high-dosage time courses are required, while the Css was used for maintenance therapy regimes such as anti-hormonal treatment. […] The IC50 values were calculated based on the Chou–Talalay method using Compusyn software [55]. For anti-hormonal treatment, mostly provided as maintenance therapy, we used IC10 values in addition to the IC50.
as §3

[5] = test system: GCPA096 T1.II patient-derived AGCT cell line; assay: Cell viability drug screen (Cell Titer Glo 2.0, 72 h), mono- and combination therapy, GCPA096T1.II; settings: for IC50: 72 h, read-out: IC50 in monotherapy
Description: as §4, §5, §3

[6] = test system: GCPA007 T2.I patient-derived AGCT cell line; assay: Cell viability drug screen (Cell Titer Glo 2.0, 72 h), mono- and combination therapy, GCPA007T2.I; settings: for IC50: read-out: IC50 in monotherapy
[7] = test system: GCPA096 T1.I patient-derived AGCT cell line; assay: Cell viability drug screen (Cell Titer Glo 2.0, 72 h), mono- and combination therapy, GCPA096T1.I; settings: for IC50: read-out: IC50 in monotherapy
[8] = test system: GCPA113 T1.I patient-derived AGCT cell line; assay: Cell viability drug screen (Cell Titer Glo 2.0, 72 h), mono- and combination therapy, GCPA113T1.I; settings: for IC50: read-out: IC50 in monotherapy
Description: as §1, §2, §3

[9] = test system: GCPA096 T1.V patient-derived AGCT cell line; assay: Cell viability drug screen (Cell Titer Glo 2.0, 72 h), mono- and combination therapy, GCPA096T1.V; settings: for IC50: 72 h, read-out: IC50 in monotherapy
Description: as §4, §5, §3

[10] = test system: GCPA113 T1.III patient-derived AGCT cell line; assay: Cell viability drug screen (Cell Titer Glo 2.0, 72 h), mono- and combination therapy, GCPA113T1.III; settings: for IC50: read-out: IC50 in monotherapy
AGCT cell lines = assay: Cell viability drug screen (72 h), summary over AGCT cell lines (12 patient-derived, with or without KGN); format: cell-based, human
Description: Cell lines were seeded at a density of 500 cells/well in 40 uL in 384-well plates (Corning, NY, USA) with the Multidrop™ cell dispenser (Thermo Fischer Scientific, Waltham, MA, USA) and sealed with Breathe-Easy® membrane (Sigma-Aldrich, St. Louis, MO, USA) to prevent evaporation. The SVOG-3e line was seeded at 1000 cells/well due to contact-dependent growth requirements. For each cell line, three biological repeats and two technical repeats each were performed in order to ensure the validity of the drug screens. […] Subsequently, 11 drugs and 12 drug combinations were dispensed and all wells (excluding blanks and non-DMSO control wells) were normalized to 1% DMSO using the HP Tecan D300e Digital Dispenser (Hewlett-Packard, Palo Alto, CA, USA). All drugs were applied in linear concentration ranges (Table 2), including 16 data points to enable combination drug testing at constant ratios (Table 3). Next, the plates were covered with the Breathe-Easy membrane and incubated. After 72 h, the Multidrop dispensed 15 uL per well of Cell Titer Glo 2.0 (Thermo Fischer Scientific, Waltham, MA, USA) and plates were incubated in the dark for 10 min. After incubation, luminescence excitation was assessed in the Spectramax reader (Molecular Devices, San Jose, CA, USA) (top read, luminescence excitation at 500 nm) and raw data were processed in Microsoft Excel to subtract background luminescence. The Z-factor, a mathematical method used to quantify the quality of a drug screen based on the calculation of the separation band between the values of the positive and negative controls, was utilized to assess the quality of drug screens [54]. Screens with a Z-factor value of >0.5 were used for further analysis.
as §5, §3

[11] = test system: GCPA108 T3.IV patient-derived AGCT cell line; assay: Cell viability drug screen (Cell Titer Glo 2.0, 72 h), mono- and combination therapy, GCPA108T3.IV; settings: for IC50: read-out: IC50 in monotherapy
[12] = test system: KGN cells (AGCT cell line); assay: Cell viability drug screen (Cell Titer Glo 2.0, 72 h), mono- and combination therapy, KGN
Description: KGN was cultured in conditions identical to AGCT-patient-derived cell lines.
as §4, §2

[13] = test system: GCPA028 T1.II patient-derived AGCT cell line; assay: Cell viability drug screen (Cell Titer Glo 2.0, 72 h), mono- and combination therapy, GCPA028; settings: for IC50: read-out: IC50 in monotherapy
Description: as §4, §5, §3

[14] = test system: aromatase inhibitor resistant metastatic breast cancer; settings: everolimus added to tamoxifen; postmenopausal women; cited from earlier work
[15] = cited from earlier work; for Cmax: read-out: Cmax/Css plasma
[16] = Homo sapiens, 72 h, read-out: IC50 in monotherapy
[17] = Homo sapiens, read-out: IC50 in monotherapy
[18] = human plasma maximum/steady state concentration, ref phase I/II clinical trials

CC(=O)O[C@H]1C(=O)[C@@]2(C)[C@H]([C@H](OC(=O)c3ccccc3)[C@]3(O)C[C@H](OC(=O)[C@H](O)[C@@H](NC(=O)c4ccccc4)c4ccccc4)C(C)=C1C3(C)C)[C@]1(OC(C)=O)CO[C@@H]1C[C@@H]2O [Paclitaxel]
IC50 ([1]; Homo sapiens, 72 h): > 50 µM
IC50 ([1]; Homo sapiens): > 50 µM
IC50 ([2]; Homo sapiens, 72 h): 48.3 µM
IC50 ([2]; Homo sapiens): 48.3 µM
IC50 ([3]; Homo sapiens): > 50 µM
IC50 ([4]; Homo sapiens, 72 h): > 50 µM
IC50 ([4]; Homo sapiens): > 50 µM
IC50 ([5]; Homo sapiens): > 50 µM
IC50 ([6]; Homo sapiens, 72 h): > 50 µM
IC50 ([7]; Homo sapiens, 72 h): > 50 µM
IC50 ([7]; Homo sapiens): > 50 µM
IC50 ([8]; Homo sapiens, 72 h): > 50 µM
IC50 ([8]; Homo sapiens): > 50 µM
IC50 ([9]; Homo sapiens): > 50 µM
IC50 ([10]; Homo sapiens, 72 h): > 50 µM
IC50 ([10]; Homo sapiens): > 50 µM
IC50 (AGCT cell lines; Homo sapiens, median over AGCT cell lines, read-out: median IC50 in monotherapy): 93.3 µM
IC50 ([11]; Homo sapiens, 72 h): > 50 µM
IC50 ([11]; Homo sapiens): > 50 µM
IC50 [12, 16]: > 50 µM
IC50 [12, 17]: > 50 µM

CO[C@H]1C[C@@H]2CC[C@@H](C)[C@@](O)(O2)C(=O)C(=O)N2CCCC[C@H]2C(=O)O[C@H]([C@H](C)C[C@@H]2CC[C@@H](OCCO)[C@H](OC)C2)CC(=O)[C@H](C)/C=C(\C)[C@@H](O)[C@@H](OC)C(=O)[C@H](C)C[C@H](C)/C=C/C=C/C=C/1C [Everolimus]
DRI (Fa=0,5) ([1]; GCPA007T2IV, in combination Everolimus+Alpelisib): 1.9
IC50 ([1]; Homo sapiens, 72 h): > 50 µM
IC50 ([1]; Homo sapiens): > 50 µM
DRI (Fa=0,5) ([2]; GCPA113T1II, drug within Everolimus+Alpelisib): 11.87
IC50 ([2]; Homo sapiens, 72 h): > 50 µM
IC50 ([2]; Homo sapiens): > 50 µM
DRI (Fa=0,5) ([3]; GCPA096T1XV, drug within Everolimus+Alpelisib): 16.55
IC50 ([3]; Homo sapiens): > 50 µM
DRI (Fa=0,5) ([4]; GCPA096T1XVI, in Everolimus+Alpelisib): 4.73
IC50 ([4]; Homo sapiens, 72 h): 32.8 µM
IC50 ([4]; Homo sapiens): 32.8 µM
DRI (Fa=0,5) ([13]; GCPA028, in combination Everolimus+Alpelisib): 2.64
IC50 ([13]; Homo sapiens, 72 h): 30.3 µM
IC50 ([13]; Homo sapiens): 30.3 µM
increase of time to progression [14]: 4.1 months
reduction of death risk [14]: 55%
DRI (Fa=0,5) ([5]; GCPA096T1II, drug within Everolimus+Alpelisib): 13.23
IC50 ([5]; Homo sapiens): > 50 µM
IC50 ([6]; Homo sapiens, 72 h): 27.8 µM
DRI (Fa=0,5) ([6]; in Everolimus+Alpelisib (1:2), GCPA007T2I): 3.15
DRI (Fa=0,5) ([7]; GCPA096T1I, in combination Everolimus+Alpelisib): 6.9
IC50 ([7]; Homo sapiens, 72 h): 32.7 µM
IC50 ([7]; Homo sapiens): 32.7 µM
DRI (Fa=0,5) ([8]; GCPA113T1I, in Everolimus+Alpelisib): 20.32
IC50 ([8]; Homo sapiens, 72 h): > 50 µM
IC50 ([8]; Homo sapiens): > 50 µM
DRI (Fa=0,5) ([9]; GCPA096T1V, drug within Everolimus+Alpelisib): 12.7
IC50 ([9]; Homo sapiens): > 50 µM
DRI (Fa=0,5) ([10]; GCPA113T1III, drug within Everolimus+Alpelisib): 23.74
IC50 ([10]; Homo sapiens, 72 h): > 50 µM
IC50 ([10]; Homo sapiens): > 50 µM
cell lines with some degree of synergy (AGCT cell lines; everolimus with chemotherapy, 13 cell lines): 9 of the 13
DRI (Fa=0,5) ([11]; GCPA108T3IV, in Everolimus+Alpelisib): 76.7983
IC50 ([11]; Homo sapiens, 72 h): > 50 µM
IC50 ([11]; Homo sapiens): > 50 µM
Cmax/Css plasma (Log 10) ([15]; human maximum or steady state plasma concentration, log10 of the uM value): -1.19 Log 10
Cmax/Css plasma (Log 10) ([15]; human plasma Cmax/Css, log10 of uM value, from phase I/II clinical trials): -1.19 Log 10
Cmax/Css plasma (Log 10) [15, 18]: -1.19 Log 10
Cmax/Css plasma (Log 10) ([15]; human plasma, maximum or steady state concentration, log10 of uM value): -1.19
Cmax/Css plasma (Log 10) ([15]; human plasma, log10 of uM, phase I/II trials): -1.19
Cmax ([15]; human maximum or steady state plasma concentration): 64.6 nM
Cmax ([15]; human plasma Cmax/Css, from phase I/II clinical trials): 64.6 nM
Cmax [15, 18]: 64.6 nM
Cmax ([15]; human plasma, maximum or steady state concentration): 64.6 nM
Cmax ([15]; human plasma, phase I/II trials): 64.6 nM
IC50 [12, 16]: 45.2 µM
IC50 [12, 17]: 45.2 µM
DRI (Fa=0,5) ([12]; drug within Everolimus+Alpelisib): 5.131

N#Cc1ccc(C(c2ccc(C#N)cc2)n2cncn2)cc1 [Letrozole]
IC50 ([1]; Homo sapiens, 72 h): > 50 µM
IC50 ([2]; Homo sapiens, 72 h): > 50 µM
IC50 ([3]; Homo sapiens): > 50 µM
IC50 ([4]; Homo sapiens, 72 h): > 50 µM
IC50 ([13]; Homo sapiens, 72 h): > 50 µM
IC50 ([5]; Homo sapiens): > 50 µM
IC50 ([6]; Homo sapiens, 72 h): > 50 µM
IC50 ([7]; Homo sapiens, 72 h): > 50 µM
IC50 ([8]; Homo sapiens, 72 h): > 50 µM
IC50 ([9]; Homo sapiens): > 50 µM
IC50 ([10]; Homo sapiens, 72 h): > 50 µM
IC50 [12, 16]: 35.4 µM

Nc1nc2c(ncn2[C@H]2C[C@H](O)[C@@H](CO)O2)c(=S)[nH]1 [6thio-2dG, 6-THIO-2dG]
DRI (Fa=0,5) ([1]; GCPA007T2IV, in combination Carbo+Pacli+6thio2dG): 0.95
IC50 ([1]; GCPA007T2IV, monotherapy): > 50 µM
DRI (Fa=0,5) ([2]; GCPA113T1II, drug within Carbo+Pacli+6thio2dG): 3.71
IC50 ([2]; GCPA113T1II, monotherapy): > 50 µM
DRI (Fa=0,5) ([3]; GCPA096T1XV, drug within Carbo+Pacli+6thio2dG): 13.49
IC50 ([3]; GCPA096T1XV, single drug, unit not given (compared with Cmax/Css in uM)): > 50 µM
DRI (Fa=0,5) ([4]; GCPA096T1XVI, in Carbo+Pacli+6thio2dG): 1.78
IC50 ([4]; GCPA096T1XVI, monotherapy): 43.8 µM
DRI (Fa=0,5) ([13]; GCPA028, in combination Carbo+Pacli+6thio2dG): 0.16
IC50 ([13]; GCPA028, monotherapy): > 50 µM
DRI (Fa=0,5) ([5]; GCPA096T1II, drug within Carbo+Pacli+6thio2dG): 12.35
IC50 ([5]; GCPA096T1II, single drug, unit not given (compared with Cmax/Css in uM)): > 50 µM
DRI (Fa=0,5) ([6]; in Carbo+Pacli+6thio2dG (10:1:1), GCPA007T2I): 2.27
IC50 ([6]; GCPA007T2I, cell viability 72 h after drug application): > 50 µM
DRI (Fa=0,5) ([7]; GCPA096T1I, in combination Carbo+Pacli+6thio2dG): 10.9
IC50 ([7]; GCPA096T1I, monotherapy): > 50 µM
DRI (Fa=0,5) ([8]; GCPA113T1I, in Carbo+Pacli+6thio2dG): 3.54
IC50 ([8]; GCPA113T1I, monotherapy): > 50 µM
DRI (Fa=0,5) ([9]; GCPA096T1V, drug within Carbo+Pacli+6thio2dG): 9.08
IC50 ([9]; GCPA096T1V, single drug, unit not given (compared with Cmax/Css in uM)): > 50 µM
DRI (Fa=0,5) ([10]; GCPA113T1III, drug within Carbo+Pacli+6thio2dG): 4.5
IC50 ([10]; GCPA113T1III, monotherapy): > 50 µM
DRI (Fa=0,5) ([11]; GCPA108T3IV, in Carbo+Pacli+6thio2dG): 6.093
IC50 ([11]; GCPA108T3IV, monotherapy): > 50 µM
DRI (Fa=0,5) ([12]; drug within Carbo+Pacli+6thio2dG): 4.961
IC50 ([12]; read-out: IC50 in monotherapy, monotherapy): > 50 µM
